Results taken from patent US20260062422A1 (Halda Therapeutics OpCo, Inc., priority 2022, published 2026).

Assays:
[1] = target: T1, androgen receptor (Homo sapiens, UniProt P10275); test: Assay for binding affinity to androgen receptor ([3H]methyltrienolone radioligand, cell cytosol); conditions: 1 nM [3H]methyltrienolone, 24 hours at 4° C., Table 5
T1 sequence (P10275 1-920 T878A): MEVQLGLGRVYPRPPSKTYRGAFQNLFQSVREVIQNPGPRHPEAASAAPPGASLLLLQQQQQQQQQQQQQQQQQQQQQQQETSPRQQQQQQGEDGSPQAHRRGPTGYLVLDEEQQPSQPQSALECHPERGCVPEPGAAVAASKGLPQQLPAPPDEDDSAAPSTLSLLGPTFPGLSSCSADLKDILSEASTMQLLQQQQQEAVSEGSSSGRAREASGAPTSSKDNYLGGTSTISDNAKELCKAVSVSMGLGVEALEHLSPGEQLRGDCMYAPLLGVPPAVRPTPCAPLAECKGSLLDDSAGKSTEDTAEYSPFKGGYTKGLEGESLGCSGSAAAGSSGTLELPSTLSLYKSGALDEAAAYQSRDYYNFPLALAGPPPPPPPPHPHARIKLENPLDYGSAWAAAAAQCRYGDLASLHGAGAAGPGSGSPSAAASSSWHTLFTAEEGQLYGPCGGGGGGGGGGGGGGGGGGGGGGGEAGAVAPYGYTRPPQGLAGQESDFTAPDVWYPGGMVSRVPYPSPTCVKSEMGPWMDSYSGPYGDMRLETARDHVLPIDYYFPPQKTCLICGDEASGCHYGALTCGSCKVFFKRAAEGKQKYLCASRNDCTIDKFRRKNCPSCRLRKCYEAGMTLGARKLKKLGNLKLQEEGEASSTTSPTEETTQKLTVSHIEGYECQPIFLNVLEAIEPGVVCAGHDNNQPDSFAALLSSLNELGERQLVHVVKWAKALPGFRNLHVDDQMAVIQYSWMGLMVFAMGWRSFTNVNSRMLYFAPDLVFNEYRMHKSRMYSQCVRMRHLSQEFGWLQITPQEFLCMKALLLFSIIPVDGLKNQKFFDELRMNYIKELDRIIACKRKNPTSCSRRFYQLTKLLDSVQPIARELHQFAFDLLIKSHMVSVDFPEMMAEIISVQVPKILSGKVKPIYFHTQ
Summary of the method: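 Competition binding in cell cytosol ([…]) with 1 nM [3H]methyltrienolone, 24 hours at 4° C, in pH 7.4 Hepes-Tris buffer with 5 μM triamcinolone acetonide; nonspecific binding defined by 1 μM testosterone. Filtration and scintillation counting; values reported as % inhibition of specific binding.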

[2] = tested on: VCaP cells; test: Cellular growth inhibition assay for VCaP cells, CellTiter-Glo; type: cell-based, human; conditions: Homo sapiens, VCaP, 72 h, 72 hours treatment, CellTiter-Glo 2.0
Summary of the method: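 GI50 values come from four-parameter curve fits of luminescence data normalized to a zero baseline. Compound, in medium with 0.5% DMSO, was added one day after plating and left for 72 h before CellTiter-Glo 2.0 addition.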

SMILES	Kd [1] [nM]	GI50 [2] [nM]
Cc1sc2c(c1C)C(c1ccc(Cl)cc1)=N[C@@H](CC(=O)NCCOC1CCN(c3ncc(C(=O)N[C@H]4C(C)(C)[C@H](Oc5ccc(C#N)c(Cl)c5)C4(C)C)cn3)CC1)c1nnc(C)n1-2 [Compound I-6]	< 50	< 500
CCNC(=O)C[C@@H]1N=C(c2cccc(OCCOC3CCN(c4ncc(C(=O)N[C@H]5C(C)(C)[C@H](Oc6ccc(C#N)c(Cl)c6)C5(C)C)cn4)CC3)c2)c2c(sc(C)c2C)-n2c(C)nnc21 [Compound I-46, N-((1r,3r)-3-(3-chloro-4-cyanophenoxy)-2,2,4,4-tetramethylcyclobutyl)-2-(4-(2-(3-((S)-6-(2-(ethylamino)-2-oxoethyl)-2,3,9-trimethyl-6H-thieno[3,2-f][1,2,4]triazolo[4,3-a][1,4]diazepin-4-yl)phenoxy)ethoxy)piperidin-1-yl)pyrimidine-5-carboxamide]	< 50	500 to 1500
Cc1sc2c(c1C)C(c1ccc(OCCOCCOCCOC3CCN(c4ncc(C(=O)N[C@H]5C(C)(C)[C@H](Oc6ccc(C#N)c(Cl)c6)C5(C)C)cn4)CC3)cc1)=N[C@@H](CC(=O)O)c1nnc(C)n1-2 [Compound I-40]	< 50	> 3000
Cc1sc2c(c1C)C(c1ccc(Cl)cc1)=N[C@@H](CC(=O)NCCCN1CCN(CCCOC3CCN(c4ncc(C(=O)N[C@H]5C(C)(C)[C@H](Oc6ccc(C#N)c(Cl)c6)C5(C)C)cn4)CC3)CC1)c1nnc(C)n1-2 [Compound I-10]	< 50	< 500
CCNC(=O)C[C@@H]1N=C(c2ccc(OCC3CN(c4ncc(C(=O)N[C@H]5C(C)(C)[C@H](Oc6ccc(C#N)c(Cl)c6)C5(C)C)cn4)C3)cc2)c2c(sc(C)c2C)-n2c(C)nnc21 [Compound I-71]	< 50	< 500
CCNC(=O)C[C@@H]1N=C(c2ccc(OCCCCc3ncc(C(=O)N[C@H]4C(C)(C)[C@H](Oc5ccc(C#N)c(Cl)c5)C4(C)C)cn3)cc2)c2c(sc(C)c2C)-n2c(C)nnc21 [Compound I-86]	< 50	500 to 1500
Cc1sc2c(c1C)C(c1ccc(Cl)cc1)=N[C@@H](CC(=O)NCCOCCOCCOCCOCCOCCOCCN(C)c1ncc(C(=O)N[C@H]3C(C)(C)[C@H](Oc4ccc(C#N)c(Cl)c4)C3(C)C)cn1)c1nnc(C)n1-2 [Compound I-4]	< 50	< 500
